Patent publication US7579342B2, “Pteridine compounds for the treatment of psoriasis” (AstraZeneca, priority 2000, dated 2009)

| SMILES | melting point |
| --- | --- |
| C[C@H](CO)Nc1nc(SCc2cccc(Cl)c2F)nc2[nH]c(=O)cnc12 [Example 6, 2-[[(3-Chloro-2-fluorophenyl)methyl]thio]-4-[[(1R)-2-hydroxy-1-methylethyl]amino]-7(8H)-pteridinone] | 209 to 211 °C |
| O=c1cnc2c(NCCO)nc(SCc3cccc(Cl)c3F)nc2[nH]1 [Example 7, 2-[[(3-Chloro-2-fluorophenyl)methyl]thio]-4-[(2-hydroxyethyl)amino]-7(8H)-pteridinone] | 195 to 196.5 °C |
| C[C@H](CO)Nc1nc(SCc2ccccc2F)nc2[nH]c(=O)cnc12 [Example 25, 2-[[(2-Fluorophenyl)methyl]thio]-4-[[(1R)-2-hydroxy-1-methylethyl]amino]-7(8H)-pteridinone] | 203 to 205 °C |
| C[C@H](CO)Nc1nc(SCc2cccc(C(F)(F)F)c2F)nc2[nH]c(=O)cnc12 [Example 30, 2-[[(2-Fluoro-3-(trifluoromethyl)phenyl)methyl]thio]-4-[[(1R)-2-hydroxy-1-methylethyl]amino]-7(8H)-pteridinone] | 217 to 219 °C |
| O=c1cnc2c(NCCO)nc(SCc3cccc(C(F)(F)F)c3F)nc2[nH]1 [Example 32, 2-[[(2-Fluoro-3-(trifluoromethyl)phenyl)methyl]thio]-4-[(2-hydroxyethyl)amino]-7(8H)-pteridinone] | 221 to 222 °C |

Results, then the compound that gave them:

| melting point | SMILES |
| --- | --- |
| 218.5 to 220.5 °C | O=c1cnc2c(NC(CO)CO)nc(SCc3cccc(Cl)c3F)nc2[nH]1 [Example 8, 2-[[(3-Chloro-2-fluorophenyl)methyl]thio]-4-[[2-hydroxy-1-(hydroxymethyl)ethyl]amino]-7(8H)-pteridinone] |
| 209 to 211 °C | COc1ccc(CSc2nc(NC(CO)CO)c3ncc(=O)[nH]c3n2)cc1Cl [Example 11, 2-[[(3-Chloro-4-methoxyphenyl)methyl]thio]-4-[[2-hydroxy-1-(hydroxymethyl)ethyl]amino]-7(8H)-pteridinone] |
| 191 to 194 °C | C[C@H](CO)Nc1nc(SCc2ccno2)nc2[nH]c(=O)cnc12 [Example 22, 4-[[(1R)-2-Hydroxy-1-methylethyl]amino]-2-[(5-isoxazolylmethyl)thio]-7(8H)-pteridinone] |
| 197 to 199 °C | Cc1ccc(CSc2nc(N[C@H](C)CO)c3ncc(=O)[nH]c3n2)o1 [Example 24, 4-[[(1R)-2-Hydroxy-1-methylethyl]amino]-2-[[(5-methyl-2-furanyl)methyl]thio]-7(8H)-pteridinone] |
| 209 to 212 °C | C[C@H](CO)Nc1nc(SCc2cccs2)nc2[nH]c(=O)cnc12 [Example 26, 4-[[(1R)-2-Hydroxy-1-methylethyl]amino]-2-[[(2-thienyl)methyl)thio]-7(8H)-pteridinone] |
| 220 to 223 °C | O=c1cnc2c(NC(CO)CO)nc(SCc3cccs3)nc2[nH]1 [Example 28, 4-[[-2-Hydroxy-1-(hydroxymethyl)ethyl]amino]-2-[(2-thienylmethyl)thio]-7(8H)-pteridinone] |
| 244 to 245 °C | O=c1cnc2c(NC(CO)CO)nc(SCc3cccc(C(F)(F)F)c3F)nc2[nH]1 [Example 31, 2-[[(2-Fluoro-3-(trifluoromethyl)phenyl)methyl]thio]-4-[[2-hydroxy-1-(hydroxymethyl)ethyl]amino]-7(8H)-pteridinone] |
